Assay [1] has as its target T1, AXL (Homo sapiens, UniProt P30530).
T1 construct: endogenous in cells; host or cells: A-172 glioblastoma cells (ATCC #CRL-1620)
T1 sequence (P30530 26-894): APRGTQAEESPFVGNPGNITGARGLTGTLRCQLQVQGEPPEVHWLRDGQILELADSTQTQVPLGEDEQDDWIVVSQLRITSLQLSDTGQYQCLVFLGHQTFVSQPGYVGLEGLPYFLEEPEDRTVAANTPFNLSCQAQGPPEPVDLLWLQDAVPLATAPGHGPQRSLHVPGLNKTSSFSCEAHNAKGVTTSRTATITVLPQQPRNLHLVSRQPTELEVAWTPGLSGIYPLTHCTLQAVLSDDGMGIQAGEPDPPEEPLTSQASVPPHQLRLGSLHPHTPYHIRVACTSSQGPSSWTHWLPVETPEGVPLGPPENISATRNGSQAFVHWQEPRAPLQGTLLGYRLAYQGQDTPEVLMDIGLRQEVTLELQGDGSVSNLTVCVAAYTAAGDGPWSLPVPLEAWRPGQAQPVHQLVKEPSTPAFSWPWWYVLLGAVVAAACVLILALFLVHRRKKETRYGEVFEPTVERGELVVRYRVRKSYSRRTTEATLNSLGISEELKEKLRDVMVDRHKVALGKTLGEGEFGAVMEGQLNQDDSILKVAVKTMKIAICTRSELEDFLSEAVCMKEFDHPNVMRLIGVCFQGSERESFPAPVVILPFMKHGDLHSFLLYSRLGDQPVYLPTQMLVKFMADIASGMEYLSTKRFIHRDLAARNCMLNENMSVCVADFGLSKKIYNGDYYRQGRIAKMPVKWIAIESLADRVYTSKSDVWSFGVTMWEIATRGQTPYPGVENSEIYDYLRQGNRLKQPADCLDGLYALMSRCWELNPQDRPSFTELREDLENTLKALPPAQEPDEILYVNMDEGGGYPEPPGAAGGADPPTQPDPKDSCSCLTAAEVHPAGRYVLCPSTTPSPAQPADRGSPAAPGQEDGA
Briefly: AXL autophosphorylation ELISA in A-172 cells. The class given is cell-based. Conditions: Table 3 Cellular Activities, Gas6-stimulated, phospho-AXL ELISA. An outline of the steps:
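A-172 glioblastoma cells serum-starved 24 h, treated 1 h with compounds (8-point dose curve, 0.3% DMSO), then stimulated with 1 μg/mL Gas6 for 15 min. Lysate phospho-AXL quantified by ELISA against a standard; IC50 from 4-parameter logistic fit, normalised to DMSO and reference-inhibitor controls.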

The target in assay [2] is Met (Homo sapiens, UniProt P08581). Briefly: Met autophosphorylation ELISA in PC-3 cells. The class given is cell-based. More on the design: endogenous in cells; host or cells: PC-3 prostate cancer cells (ATCC #CRL-1435). Conditions: Table 3 Cellular Activities, HGF-stimulated, phospho-Met ELISA, read-out: c-Met IC50. The method, boiled down: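 Serum-starved (3 h) PC-3 cells pre-incubated 1 h with compound (8-point dose curve, 0.3% DMSO), then stimulated with 100 ng/mL recombinant human HGF for 10 min. Lysate phospho-Met (panTyr) measured by sandwich ELISA; IC50 from 4-parameter logistic fit, normalised to DMSO (100%) and reference-inhibitor (0%) controls.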

The text below walks through data of patent publication US20230151003A1, “COMPOUNDS AND METHODS OF USE” (Exelixis, Inc., priority 2020, published 2023).

Met, sequence (P08581 25-1390): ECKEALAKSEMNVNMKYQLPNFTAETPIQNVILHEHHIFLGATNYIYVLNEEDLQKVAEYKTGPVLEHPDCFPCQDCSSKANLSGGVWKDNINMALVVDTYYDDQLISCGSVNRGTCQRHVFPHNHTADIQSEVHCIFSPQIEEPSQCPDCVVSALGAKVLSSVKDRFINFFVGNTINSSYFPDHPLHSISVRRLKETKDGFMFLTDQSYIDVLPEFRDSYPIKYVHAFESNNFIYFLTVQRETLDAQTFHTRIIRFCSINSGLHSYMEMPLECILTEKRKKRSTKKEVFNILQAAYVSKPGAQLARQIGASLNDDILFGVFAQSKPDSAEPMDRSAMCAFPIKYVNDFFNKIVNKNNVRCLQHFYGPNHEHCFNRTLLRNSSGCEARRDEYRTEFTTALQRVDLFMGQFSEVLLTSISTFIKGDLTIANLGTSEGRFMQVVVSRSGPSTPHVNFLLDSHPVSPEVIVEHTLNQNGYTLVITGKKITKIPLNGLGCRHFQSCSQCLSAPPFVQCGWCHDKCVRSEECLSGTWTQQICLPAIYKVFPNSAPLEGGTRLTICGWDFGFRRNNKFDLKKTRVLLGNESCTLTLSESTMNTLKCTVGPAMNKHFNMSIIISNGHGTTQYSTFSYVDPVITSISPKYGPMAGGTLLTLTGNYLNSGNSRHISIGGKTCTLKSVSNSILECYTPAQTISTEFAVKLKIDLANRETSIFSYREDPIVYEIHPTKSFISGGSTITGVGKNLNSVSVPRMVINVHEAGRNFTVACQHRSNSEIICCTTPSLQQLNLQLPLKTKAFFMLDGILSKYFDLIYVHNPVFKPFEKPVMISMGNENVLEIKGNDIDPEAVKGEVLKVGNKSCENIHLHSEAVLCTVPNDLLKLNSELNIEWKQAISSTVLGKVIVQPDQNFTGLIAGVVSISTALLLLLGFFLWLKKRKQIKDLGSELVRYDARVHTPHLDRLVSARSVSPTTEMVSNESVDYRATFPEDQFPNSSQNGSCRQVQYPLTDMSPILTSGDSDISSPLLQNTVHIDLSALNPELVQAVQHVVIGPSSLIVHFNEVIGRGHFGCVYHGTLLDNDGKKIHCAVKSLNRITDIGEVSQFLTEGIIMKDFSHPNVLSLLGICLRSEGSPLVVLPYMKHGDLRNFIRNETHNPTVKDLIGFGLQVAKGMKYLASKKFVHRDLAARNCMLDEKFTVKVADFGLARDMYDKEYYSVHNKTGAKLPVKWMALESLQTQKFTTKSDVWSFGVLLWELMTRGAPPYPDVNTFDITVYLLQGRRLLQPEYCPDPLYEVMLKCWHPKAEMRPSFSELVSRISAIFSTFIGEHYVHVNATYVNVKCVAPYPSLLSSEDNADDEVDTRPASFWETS

What is called IC50 is the concentration that gives 50% inhibition. Turning to `COc1cc2nccc(Oc3ccc(NC(=O)c4cc(Br)c(C)n(-c5ccc(F)cn5)c4=O)cc3F)c2nc1OC` [Compound 55, 5-Bromo-N-[4-[(6,7-dimethoxy-1,5-naphthyridin-4-yl)oxy]-3-fluorophenyl]-1-(5-fluoropyridin-2-yl)-6-methyl-2-oxopyridine-3-carboxamide], the IC50 in assay [1] and in assay [2] was ≤ 100 nM in each case.

Turning to `COc1cc2nccc(Oc3ccc(NC(=O)c4cnc(C)c(-c5ccco5)c4O)cc3F)c2nc1OC` [Compound 89, N-[4-[(6,7-Dimethoxy-1,5-naphthyridin-4-yl)oxy]-3-fluorophenyl]-5-(furan-2-yl)-4-hydroxy-6-methylpyridine-3-carboxamide], the IC50 in assay [1] and in assay [2] was ≤ 100 nM throughout.

Turning to `COc1cc2nccc(Oc3ccc(NC(=O)c4cnc(C)c(-c5cccs5)c4O)cc3F)c2nc1OC` [Compound 90, N-[4-[(6,7-Dimethoxy-1,5-naphthyridin-4-yl)oxy]-3-fluoro-phenyl]-4-hydroxy-6-methyl-5-(2-thienyl)pyridine-3-carboxamide], the IC50 in assay [1] and in assay [2] was ≤ 100 nM throughout.

Take `COc1cc2nccc(Oc3ccc(NC(=O)c4cnc(C)c(-c5cc(C)cs5)c4O)cc3F)c2nc1OC` [Compound 91, N-[4-[(6,7-Dimethoxy-1,5-naphthyridin-4-yl)oxy]-3-fluoro-phenyl]-4-hydroxy-6-methyl-5-(4-methyl-2-thienyl) pyridine-3-carboxamide]: the IC50 in assay [1] and in assay [2] was ≤ 100 nM throughout.

`COc1cc2nccc(Oc3ccc(NC(=O)c4cnc(C)c(-c5ccc(C)o5)c4O)cc3F)c2nc1OC` [Compound 92, N-[4-[(6,7-Dimethoxy-1,5-naphthyridin-4-yl)oxy]-3-fluoro-phenyl]-4-hydroxy-6-methyl-5-(5-methyl-2-furyl)pyridine-3-carboxamide]: the IC50 in assay [1] and in assay [2] was ≤ 100 nM each time.

Turning to `COc1cc2nccc(Oc3ccc(NC(=O)c4cnc(C)c(-c5ccsc5)c4O)cc3F)c2nc1OC` [Compound 93, N-[4-[(6,7-Dimethoxy-1,5-naphthyridin-4-yl)oxy]-3-fluoro-phenyl]-4-hydroxy-6-methyl-5-(3-thienyl)pyridine-3-carboxamide], the IC50 in assay [1] and in assay [2] was ≤ 100 nM throughout.

With `COc1cc2nccc(Oc3ccc(NC(=O)c4cnc(C)c(-c5ccc(C)s5)c4O)cc3F)c2nc1OC` [Compound 94, N-[4-[(6,7-Dimethoxy-1,5-naphthyridin-4-yl)oxy]-3-fluoro-phenyl]-4-hydroxy-6-methyl-5-(5-methyl-2-thienyl) pyridine-3-carboxamide], the IC50 in assay [1] and in assay [2] was ≤ 100 nM each time.

In the case of `COc1cc2nccc(Oc3ccc(NC(=O)c4cnc(C)c(-c5ccoc5)c4O)cc3F)c2nc1OC` [Compound 95, N-[4-[(6,7-Dimethoxy-1,5-naphthyridin-4-yl)oxy]-3-fluoro-phenyl]-5-(3-furyl)-4-hydroxy-6-methyl-pyridine-3-carboxamide], the 50% inhibitory concentration (IC50) in assay [1] and in assay [2] was ≤ 100 nM each time.

As to `COc1cnc2c(Oc3ccc(NC(=O)c4cnc(C)c(-c5ccco5)c4O)cc3F)ccnc2c1` [Compound 96, N-[3-Fluoro-4-[(7-methoxy-1,5-naphthyridin-4-yl)oxy]phenyl]-5-(2-furyl)-4-hydroxy-6-methyl-pyridine-3-carboxamide], the IC50 in assay [1] and in assay [2] was ≤ 100 nM throughout.

Regarding `COc1cnc2c(Oc3ccc(NC(=O)c4cnc(C)c(-c5ccc(C)o5)c4O)cc3F)ccnc2c1` [Compound 97, N-[3-Fluoro-4-[(7-methoxy-1,5-naphthyridin-4-yl)oxy]phenyl]-4-hydroxy-6-methyl-5-(5-methyl-2-furyl)pyridine-3-carboxamide], the values for the half-inhibitory concentration (IC50) in assay [1] and in assay [2] were ≤ 100 nM and 100 to 300 nM, respectively.

As to `COc1cnc2c(Oc3ccc(NC(=O)c4cnc(C)c(-c5ccsc5)c4O)cc3F)ccnc2c1` [Compound 98, N-[3-Fluoro-4-[(7-methoxy-1,5-naphthyridin-4-yl)oxy]phenyl]-4-hydroxy-6-methyl-5-(3-thienyl)pyridine-3-carboxamide], the IC50 in assay [1] and in assay [2] was ≤ 100 nM throughout.
